Data reported in patent publication EP1123387B1, “MN GENE AND PROTEIN” (INSTITUTE OF VIROLOGY, priority 1998, dated 2000).
Like-named read-outs stand apart in the source and are kept apart here. Where a SMILES comes first, the peptide text is derived from it.

What was measured:
[1] = test system: Rat2TK- cells and C33 human cervical carcinoma cells transfected with pMN-HSVtk
[2] = target: T1, epitope of immobilized GST-MN (Homo sapiens, UniProt Q16790); assay: Competition ELISA (peptides binding to the epitope of immobilized GST-MN); conditions: nonapeptides of 7 + 2 aa
T1 construct: expressed from pGEX-3X-MN containing the cDNA for the MN protein without the signal peptide; made in house; host or cells: bacteria (E. coli XL1-Blue)
Method: (§1) ELISA. Purified GST-MN [Zavada et al. (1993), supra] at concentration 10 ng /ml in carbonate buffer pH 9.2 was adsorbed for 3 h in Maxisorb strips (NUNC). After washing and blocking (1 h) with 0.05% Tween 20 in PBS, 50µl/well of the antibody + antigen mixtures were added. […] These mixtures were adsorbed for 1.5 h, followed by washing with Tween-PBS. Bound antibody was detected by antimouse lgG conjugate with peroxidase (SwAM-Px, SEVAC, Prague), diluted 1:1000. In the color reaction OPD (o-phenylenediamine dihydrochloride, Sigma) 1 mg/ml in 0.1 M citrate buffer pH 5.0 was used. To this H2O2 was added to final concentration 0.03%. This system is balanced so as to allow assay for antigen competing for M75 as well as for peptides binding to the epitope of immobilized GST-MN.
MN/CA IX. As an alternative to monoclonal antibodies, we set out to select oligopeptides exerting affinity to M75 epitope as well as to MN/CA IX receptor binding site from a phage display library of random heptapeptides - Ph.D.-7. Our aim was to select phages containing the desired heptapeptides by panning on immobilized peptide SEQ ID NO: 106 and subsequent elution with M75. Eluted phage was multiplied in appropriate bacteria and subjected to 4 more cycles of panning and elution. From the selected phage population, 10 plaques were picked, amplified and the heptapeptide-coding region was sequenced. Only 3 heptapeptides were represented. Those three heptapeptides, after adding alanine on both sides, are the following nonapeptides: […] [SEQ ID NO: 137]; […] [SEQ ID NO: 138]; and […] [SEQ ID NO: 139]. The last heptapeptide, synthesized again with added terminal alanines as nonapeptide […] [SEQ ID NO: 140], was identified by panning on GST-MN and eluted with acetazolamide. This last peptide has affinity to the active site of MN/CA IX carbonic anhydrase. We synthesized these peptides of 7 + 2 aa and tested them in competition ELISA and in cell adhesion inhibition. […] In all of those 4 nonapeptides, the C-terminal […] as amide.

MN/CA IX = MN/CA IX (Homo sapiens, UniProt Q16790); assay: Cell adhesion assay of Example 2 (inhibition of cell attachment to MN/CA IX dots); type: cell-based; conditions: nonapeptides of 7 + 2 aa
NIH3T3 cells = assay: Tolerance of cell cultures to acetazolamide; type: cell-based, mouse; conditions: sparse cultures
[3] = Tolerance of cell cultures to acetazolamide; type: cell-based, mouse; conditions: mouse, nih3t3 cells; confluent cultures, 3 days; read-out: concentration tolerated without any signs of toxicity and without any effect on cell morphology
[4] = test system: NIH3T3 cells freshly transformed with the [pGD.MN + MLV] complex; assay: Effect on morphologic transformation by MN; type: cell-based, mouse; conditions: 10^-5M, 4 days of incubation
Method: Thus, 10^-5M acetazolamide was added to NIH3T3 cells freshly transformed with the [pGD.MN + MLV] complex. After 4 days of incubation, the colonies were fixed and stained. No difference was seen between cells growing in the presence or absence of acetazolamide; both were indistinguishable from correctly transformed NIH3T3 cells. Thus, the enzymatic activity of carbonic anhydrase is not relevant for the transforming activity of MN protein.

HeLa = assay: Tolerance of cell cultures to acetazolamide; type: cell-based, human; conditions: sparse cultures
[5] = Tolerance of cell cultures to acetazolamide; type: cell-based, human; conditions: human, hela cells; confluent cultures, 3 days; read-out: concentration tolerated without any signs of toxicity and without any effect on cell morphology
MAb M75 = assay: Competition ELISA with M75 (antigen competing for M75); type: binding, mouse; conditions: for concentration causing 50% inhibition: GST-MN adsorbed, MAb 75 ascites fluid 10^-6; for reactive with the M75 MAb: test not given
Method: as §1
Identification of the epitope recognized by Mab M75. Preliminary mapping of M75 epitope employing partial sequences of extracellular parts of MN/CA9 cDNA expressed from bacterial vectors and tested on Western blots located it in PG region. For exact mapping, our strategy was to synthesize partially overlapping oligopeptides of 15-25 aa covering the PG domain and test them in competition ELISA with M75. According to the results, this was followed by a series of 6-12 aa oligopeptides. A major part of the PG domain consists of a 6-fold tandem repeat of 6 aa (aa 61 - 96) [SEQ ID NO: 97]; 4 repeats are identical (GEEDLP) [SEQ ID NO: 98] and 2 contain 2 aa exchanged (SEEDSP [SEQ ID NO: 141] and REEDPP [SEQ ID NO: 142]).

## Nc1nc(O)c2ncn(COC(CO)CO)c2n1 [GVC, ganciclovir]
[1]
  cells killed: up to 95%

## CSCC[C@H](NC(=O)[C@H](CCCCN)NC(=O)[C@H](CCCCN)NC(=O)[C@H](C)N)C(=O)N[C@@H](CCCCN)C(=O)N[C@@H](CCCNC(=N)N)C(=O)N[C@@H](CCCNC(=N)N)C(=O)N[C@@H](CCCCN)C(=O)N[C@@H](C)C(N)=O [SEQ ID NO: 137] (H-AKKMKRRKA-NH2)
[2]
  activity in competition ELISA: less active
MN/CA IX
  activity in cell adhesion inhibition: less active

## CC[C@H](C)[C@H](NC(=O)[C@H](C)N)C(=O)N[C@H](C(=O)N[C@@H](Cc1ccccc1)C(=O)N[C@@H](CC(N)=O)C(=O)N[C@@H](C)C(=O)N[C@@H](CCC(N)=O)C(=O)N[C@@H](Cc1ccc(O)cc1)C(=O)N[C@@H](C)C(N)=O)[C@@H](C)O [SEQ ID NO: 138] (H-AITFNAQYA-NH2)
[2]
  activity in competition ELISA: highest activity
MN/CA IX
  activity in cell adhesion inhibition: highest activity

## CC(C)[C@H](NC(=O)[C@@H]1CCCN1C(=O)[C@H](C)NC(=O)[C@H](CO)NC(=O)[C@H](C)NC(=O)[C@H](CO)NC(=O)[C@H](C)N)C(=O)N[C@@H](CO)C(=O)N[C@@H](C)C(N)=O [SEQ ID NO: 139] (H-ASASAPVSA-NH2)
[2]
  activity in competition ELISA: marginally positive
MN/CA IX
  activity in cell adhesion inhibition: marginally positive only in ELISA

## CC(C)C[C@H](NC(=O)[C@@H]1CCCN1C(=O)[C@H](CO)NC(=O)[C@H](CCCNC(=N)N)NC(=O)[C@@H](NC(=O)[C@H](CCC(N)=O)NC(=O)CNC(=O)[C@H](C)N)[C@@H](C)O)C(=O)N[C@@H](C)C(N)=O [SEQ ID NO: 140] (H-AGQTRSPLA-NH2)
[2]
  activity in competition ELISA: inactive
MN/CA IX
  activity in cell adhesion inhibition: inactive

## CC(=O)Nc1nnc(S(N)(=O)=O)s1 [acetazolamide]
NIH3T3 cells; 10^-4M
  cell growth: partial inhibition
NIH3T3 cells; 10^-5M
  cell growth: did not inhibit cell growth
[3]
  MNTC at 72 h: 10 to 1000 µM
[4]
  difference between transformed cells growing in the presence or absence of the drug: No difference
HeLa; 10^-4M
  cell growth: partial inhibition
HeLa; 10^-5M
  cell growth: did not inhibit cell growth
[5]
  MNTC at 72 h: 10 to 1000 µM

## EDPPGEEDLPGEEDLPGEEDLPEVC [SEQ ID NO: 106]
MAb M75; competition ELISA
  concentration causing 50% inhibition: 1 ng/mL
MAb M75
  reactive with the M75 MAb: reactive

## GEEDLPSEEDSPREEDPPGEEDLPGEC [SEQ ID NO: 105]
MAb M75; competition ELISA
  fold less active (than SEQ ID NOS: 104 and 106): 1000 x
MAb M75
  reactive with the M75 MAb: reactive

## GGSSGEDDPLGEEDLPSEEDSPC [SEQ ID NO: 104]
MAb M75; competition ELISA
  concentration causing 50% inhibition: 1 ng/mL
MAb M75
  reactive with the M75 MAb: reactive
